Consider 28 molecules from ChEMBL document CHEMBL4406840, “Design and synthesis of novel artemisinin derivatives with potent activities against colorectal cancer in vitro and in vivo” (Eur J Med Chem, 2019).

Active and inactive are the calls of the source. No cut-off for these calls is given here. Some results are limits rather than exact numbers.

Series [1] relates to HCT-116. Kind of series: cells. It counts as functional, cell-based. To be noted: Homo sapiens, HCT-116, 48 h.
Description: Antiproliferative activity against human HCT116 cells assessed as inhibition of cell viability after 48 hrs by MTS assay
Series [2] has as its system WM 266-4. Kind of series: cells. It counts as functional, cell-based. To be noted: Homo sapiens, WM 266-4, 48 h.
Description: Antiproliferative activity against human WM266.4 cells assessed as inhibition of cell viability after 48 hrs by MTS assay
Series [3] concerns HCT-116. The note with it: Homo sapiens, at 10 mg/kg.
Description: Antitumour activity against human HCT116 cells xenografted in BALB/c nude mouse assessed as reduction in tumour growth at 10 mg/kg, ip administered daily for 18 days started from 2 days after tumor cell inoculation by digital caliper method
Series [4] concerns HCT-116. Kind of series: Potency index, ratio of dihydroartemisinin IC50 to compound IC50 for antiproliferative activity against human HCT116 cells by MTS assay. It counts as functional. (In general: Tetrazolium dyes change colour on reduction, which living cells bring about.)
Series [5] concerns HCT-116. Kind of series: Antitumour activity against human HCT116 cells xenografted in BALB/c nude mouse assessed as delay in tumour growth at 2.5 to 5 mg/kg, ip administered daily for 18 days started from 2 days after tumor cell inoculation by digital caliper method. It counts as functional, organism-based. On the technique in general: A xenograft is tissue or cells of one species grown in another, often human tumour cells in immunodeficient mice.

Series [6] concerns HCT-116. Kind of series: Antitumour activity against human HCT116 cells xenografted in BALB/c nude mouse assessed as tumour shrunken at 2.5 to 5 mg/kg, ip administered daily for 18 days started from 2 days after tumor cell inoculation by digital caliper method. It counts as functional, organism-based.
The nature of series [7]: Toxicity in BALB/c nude mouse xenografted with human HCT116 cells assessed as effect on body weight at 2.5 to 5 mg/kg, ip administered daily for 18 days. It counts as organism-based. To be noted: in vivo, 432 h.

By IC50 is commonly meant the concentration at which inhibition is half-maximal. The low end stands for greater potency in that assay, the high end for weaker potency in that assay. Consider `CC(=O)N(c1ccc(F)c(Cl)c1)c1ncnc2ccc(COC(=O)CCCCC(=O)N[C@@H]3O[C@@H]4O[C@@]5(C)CC[C@H]6[C@H](C)CC[C@@H]([C@H]3C)[C@@]46OO5)cc12`, for which the IC50 was found to be 11.8 µM in series [1] and 27.8 µM in series [2].

As for `C[C@H]1[C@H](OCCCCOCc2ccc3ncnc(Nc4ccc(F)c(Cl)c4)c3c2)O[C@@H]2O[C@@]3(C)CC[C@H]4[C@H](C)CC[C@@H]1[C@@]24OO3`, the half-maximal inhibitory concentration (IC50) stood at 2.42 µM in series [1] and 12.6 µM in series [2].

Take `C[C@H]1[C@H](OC(=O)CCCCC(=O)OCc2ccc3ncnc(Nc4ccc(F)c(Cl)c4)c3c2)O[C@@H]2O[C@@]3(C)CC[C@H]4[C@H](C)CC[C@@H]1[C@@]24OO3`: the concentration for half-maximal inhibition (IC50) turned out to be 0.31 µM in series [1] and 3.51 µM in series [2].

As to `C[C@@H]1CC[C@H]2[C@@H](C)C(O[C@H](C(=O)OCc3ccc4ncnc(Nc5ccc(F)c(Cl)c5)c4c3)c3ccccc3)O[C@@H]3O[C@@]4(C)CC[C@@H]1[C@]32OO4` (stereo partly drawn), half-maximal inhibition in series [1] (IC50) was put at 0.89 µM. That is a sub-micromolar value.

Molecule `CC(=O)O[C@H]1C(=O)[C@@]2(C)[C@H]([C@H](OC(=O)c3ccccc3)[C@]3(O)C[C@H](OC(=O)[C@H](O)[C@@H](NC(=O)c4ccccc4)c4ccccc4)C(C)=C1C3(C)C)[C@]1(OC(C)=O)CO[C@@H]1C[C@@H]2O` [PACLITAXEL] showed an IC50 in series [2] of 0.00032 µM. In other words, the sub-nanomolar range.

With `C[C@H]1[C@@H](OCc2ccc3ncnc(Nc4ccc(F)c(Cl)c4)c3c2)O[C@@H]2O[C@@]3(C)CC[C@H]4[C@H](C)CC[C@@H]1[C@@]24OO3`, the results for the IC50 in series [1] and in series [2] were 0.29 µM and 10.8 µM, respectively.

With `CC(=O)N(c1ccc(F)c(Cl)c1)c1ncnc2ccc(COC(=O)CCC(=O)N[C@@H]3O[C@@H]4O[C@@]5(C)CC[C@H]6[C@H](C)CC[C@@H]([C@H]3C)[C@@]46OO5)cc12`, the figures for the IC50 in series [1] and in series [2] were 12.9 µM and 15.4 µM, respectively.

The molecule `C[C@@H]1CC[C@H]2[C@@H](C)C(O[C@@H](C(=O)OCc3ccc4ncnc(Nc5ccc(F)c(Cl)c5)c4c3)c3ccccc3)O[C@@H]3O[C@@]4(C)CC[C@@H]1[C@]32OO4` (stereo partly drawn) yielded a half-inhibitory concentration (IC50) in series [1] of 0.68 µM.

`C[C@H]1[C@H](O)O[C@@H]2O[C@@]3(C)CC[C@H]4[C@H](C)CC[C@@H]1[C@@]24OO3`: the IC50 in series [1] was 2.85 µM; in series [2] it was more than 40 µM. The inhibition entry in series [3] is “Active”.

Take `C[C@H]1[C@H](OC(=O)CCC(=O)OCc2ccc3ncnc(Nc4ccc(F)c(Cl)c4)c3c2)O[C@@H]2O[C@@]3(C)CC[C@H]4[C@H](C)CC[C@@H]1[C@@]24OO3`: the half-inhibitory concentration (IC50) in series [1] amounted to 0.18 µM; in series [2] it was 10.2 µM.

Regarding `C[C@H]1[C@H](OCc2ccc3ncnc(Nc4ccc(F)c(Cl)c4)c3c2)O[C@@H]2O[C@@]3(C)CC[C@H]4[C@H](C)CC[C@@H]1[C@@]24OO3`, the half-maximal inhibitory concentration (IC50) was 0.42 µM in series [1] and 4.56 µM in series [2].

With `C[C@H]1[C@@H](OCCCCCOc2ccc3ncnc(Nc4ccc(F)c(Cl)c4)c3c2)O[C@@H]2O[C@@]3(C)CC[C@H]4[C@H](C)CC[C@@H]1[C@@]24OO3`, the IC50 in series [1] is 0.24 µM; in series [2], 2.91 µM. Besides, in series [4], the “Ratio IC50” value is reported as 10.

For `CC(=O)N(c1ccc(F)c(Cl)c1)c1ncnc2ccc(COC(=O)CCCCC(=O)O[C@@H]3O[C@@H]4O[C@@]5(C)CC[C@H]6[C@H](C)CC[C@@H]([C@H]3C)[C@@]46OO5)cc12`, the IC50 in series [1] was 0.66 µM; in series [2] it was 18.8 µM.

For `C[C@H]1[C@H](OCCCCCOc2ccc3ncnc(Nc4ccc(F)c(Cl)c4)c3c2)O[C@@H]2O[C@@]3(C)CC[C@H]4[C@H](C)CC[C@@H]1[C@@]24OO3`, the half-inhibitory concentration (IC50) in series [1] was determined as 0.35 µM; in series [2], 5.7 µM.

On to `C[C@H]1[C@H](NC(=O)CCC(=O)OCc2ccc3ncnc(Nc4ccc(F)c(Cl)c4)c3c2)O[C@@H]2O[C@@]3(C)CC[C@H]4[C@H](C)CC[C@@H]1[C@@]24OO3`, for which the IC50 in series [1] worked out at 2.78 µM; in series [2] it was 9.88 µM.

As for `C[C@H]1[C@H](OC(=O)CCCC(=O)OCc2ccc3ncnc(Nc4ccc(F)c(Cl)c4)c3c2)O[C@@H]2O[C@@]3(C)CC[C@H]4[C@H](C)CC[C@@H]1[C@@]24OO3`, the IC50 was 0.29 µM in series [1] and 11.4 µM in series [2].

Regarding `C[C@H]1[C@H](OC[C@H](NC(=O)c2ccc3ncnc(Nc4ccc(F)c(Cl)c4)c3c2)c2ccccc2)O[C@@H]2O[C@@]3(C)CC[C@H]4[C@H](C)CC[C@@H]1[C@@]24OO3`, the results for the concentration for half-maximal inhibition (IC50) in series [1] and in series [2] were 0.11 µM and 6.67 µM, respectively. For the same molecule, the inhibition entry in series [5] was “Active”. Further, in series [6], the outcome was Active. Also, the Activity result in series [7] is given as “Non-Toxic”.

In the case of `O=C(O)c1ccc2ncnc(Nc3ccc(F)c(Cl)c3)c2c1`, the IC50 in series [1] and in series [2] was more than 40 µM in each case.

Regarding `C[C@H]1[C@@H](OCCCCOCc2ccc3ncnc(Nc4ccc(F)c(Cl)c4)c3c2)O[C@@H]2O[C@@]3(C)CC[C@H]4[C@H](C)CC[C@@H]1[C@@]24OO3`, the IC50 in series [1] was found to be 0.36 µM; in series [2] it was 3.81 µM.

Take `C[C@H]1[C@H](OCCCOCc2ccc3ncnc(Nc4ccc(F)c(Cl)c4)c3c2)O[C@@H]2O[C@@]3(C)CC[C@H]4[C@H](C)CC[C@@H]1[C@@]24OO3`: the IC50 amounted to 6.54 µM in series [1] and 15.8 µM in series [2].

As to `C[C@H]1[C@H](NC(=O)CCCCC(=O)OCc2ccc3ncnc(Nc4ccc(F)c(Cl)c4)c3c2)O[C@@H]2O[C@@]3(C)CC[C@H]4[C@H](C)CC[C@@H]1[C@@]24OO3`, the IC50 in series [1] was 5.68 µM; in series [2], 25.3 µM.

Consider `C[C@H]1[C@@H](OCCCOCc2ccc3ncnc(Nc4ccc(F)c(Cl)c4)c3c2)O[C@@H]2O[C@@]3(C)CC[C@H]4[C@H](C)CC[C@@H]1[C@@]24OO3`, for which the half-maximal inhibitory concentration (IC50) in series [1] is 2.11 µM; in series [2] it was 5.18 µM.

`C[C@H]1[C@H](NC(=O)CCCC(=O)OCc2ccc3ncnc(Nc4ccc(F)c(Cl)c4)c3c2)O[C@@H]2O[C@@]3(C)CC[C@H]4[C@H](C)CC[C@@H]1[C@@]24OO3`: the IC50 in series [1] stood at 5.56 µM; in series [2], 15.3 µM.

With `C[C@H]1[C@H](OC[C@H](N)c2ccccc2)O[C@@H]2O[C@@]3(C)CC[C@H]4[C@H](C)CC[C@@H]1[C@@]24OO3`, the figures for the half-maximal inhibitory concentration (IC50) in series [1] and in series [2] were 16.2 µM and 15.1 µM, respectively.

Regarding `CC(=O)N(c1ccc(F)c(Cl)c1)c1ncnc2ccc(COC(=O)CCCC(=O)N[C@@H]3O[C@@H]4O[C@@]5(C)CC[C@H]6[C@H](C)CC[C@@H]([C@H]3C)[C@@]46OO5)cc12`, the IC50 was determined as 5.35 µM in series [1] and 5.08 µM in series [2].

In the case of `CC(=O)N(c1ccc(F)c(Cl)c1)c1ncnc2ccc(COC(=O)CCCC(=O)O[C@@H]3O[C@@H]4O[C@@]5(C)CC[C@H]6[C@H](C)CC[C@@H]([C@H]3C)[C@@]46OO5)cc12`, the values for the half-inhibitory concentration (IC50) in series [1] and in series [2] were 0.78 µM and 15 µM, respectively.

On to `CC(=O)N(c1ccc(F)c(Cl)c1)c1ncnc2ccc(COC(=O)CCC(=O)O[C@@H]3O[C@@H]4O[C@@]5(C)CC[C@H]6[C@H](C)CC[C@@H]([C@H]3C)[C@@]46OO5)cc12`, for which the values for the IC50 in series [1] and in series [2] were 0.28 µM and 9.29 µM, respectively.

Consider `C[C@H]1[C@H](OC(=O)CCC(=O)O)O[C@@H]2O[C@@]3(C)CC[C@H]4[C@H](C)CC[C@@H]1[C@@]24OO3` [ARTESUNATE], for which the IC50 in series [1] was determined as 0.89 µM; in series [2], 8.46 µM.
